Values quoted from earlier work, collected in patent US11975079B2, “Truncated Evans Blue modified fibroblast activation protein inhibitor, preparation method and application thereof” (YANTAI LANNACHENG BIOTECHNOLOGY CO., LTD., priority 2021, dated 2024).

- decrease of retained dose at tumor site (24 hours later): about 75%
SMILES: N#C[C@@H]1CCCN1C(=O)CNC(=O)c1ccnc2ccc(OCCCN3CCN(C(=O)CN4CCN(CC(=O)O)CCN(CC(=O)O)CCN(CC(=O)O)CC4)CC3)cc12 [FAPI-02]
- clearance in blood circulation (according to current reports): completely cleared in blood circulation within one hour
